The record followed here is patent publication US20250381245A1, “METHODS AND COMPOSITIONS OF TREATING CANCER BY MODULATING PALMITOYLATION OF FLOTILLIN-1” (BOARD OF REGENTS, THE UNIVERSITY OF TEXAS SYSTEM, priority 2022, published 2025).

This assay has as its system flotillin-1. Kind of assay: Flotillin-1 protein level by western blot after chemical inhibition of palmitoylation in triple-negative breast cancer cell lines. Type of assay: cell-based. Particulars: MDA-MB-231 and SUM 159 triple-negative breast cancer cell lines. The method, then:
MDA-MB-231 and SUM 159 triple-negative breast cancer cell lines were treated with drug vehicle (DMSO), (B, C) global palmitoylation inhibitor (2-BP), or 2-BP+a proteasomal inhibitor (MG-132).
Protein lysates were lysed in a 1% SDS lysis buffer containing 2 mM EDTA and 20 mM Tris-HCl (PH 6.8) for 5 minutes and scraped into 1.5 mL collection tubes. Lysates were sonicated using horn sonification for 3×20 seconds each and allowed to recover on ice in between each sonification. Lysates were centrifuged for 5 minutes at 10,000 rpm at 4° C. and supernatants subjected to protein quantification by BCA assay. Lysates were then diluted to 50 ug, resolubilized in 4×SDS loading buffer (200 mM Tris-HCL, 6.8 PH, 8% SDS, 40% glycerol, 0.4% bromophenol blue) and boiled at 95° C. for 7 minutes. Boiled samples were resolved on a 10% SDS-PAGE gel and transferred to a nitrocellulose membrane. Transferred membranes were blocked for 1 hour in 5% non-fat dairy milk (NFDM). Blocked membranes were washed with 1× tris buffer saline+0.1% tween-20 (TBST) prior to the addition of the diluted primary antibody overnight at 4° C. The following day, membranes were washed thrice with TBST for 5 minutes each prior to the addition of rabbit (1:3000) (Cell Signaling Technologies, #7074) or mouse IgG (1:5000) secondary horse radish peroxidase (HRP) conjugated antibody diluted in 5% NFDM for 1 hour. […]

Residues, ends and D or L forms follow the SMILES beside them. *: point of attachment. Cbz = O=C(OCc1ccccc1)*

Take `CCCCCCCCCCCCCCC(Br)C(=O)O` (centres unmarked) [2-BP, 2-bromopalmitate]: under “global palmitoylation inhibitor vs drug vehicle (DMSO)”, the flotillin-1 protein levels entry is reported as “significantly reduces flotillin-1 protein levels”.
On to `CC(C)C[C@@H](C=O)NC(=O)[C@H](CC(C)C)NC(=O)[C@H](CC(C)C)NC(=O)OCc1ccccc1` [MG-132] (Cbz-Leu-Leu-Leu-aldehyde), for which, under “2-BP + proteasomal inhibitor (MG-132) vs 2-BP alone”, the “flotillin-1 protein levels upon proteasomal inhibition” value is “restored”.
